Results taken from patent US9510593B2, “S-benzylthiouracil compounds and methods of enhancing plant root growth” (Valent BioSciences Corporation, priority 2014, dated 2016).
Entries after “also recorded” stand apart in the source; their conditions may differ. Where two headings read alike, the source gives them in different places.

How the values were obtained:
Type in all cases: in vivo
rice = assay: Rice pouch assay: growth of primary root and shoot; details: for Percent Change (rice primary root growth): compounds and water-soluble salts; for change in vivo at 10 ppm: Oryza sativa, 144 h, read-out: Percent Change in Primary Root Length in Rice; for Effect on rice root growth, in words: rice pouch assay, compared to control; for Percent Change in Primary Root Length of Rice: linkage changes
Procedure: Seeds were placed in germination pouches consisting of germination paper as an insert in a gas-permeable 16×14 cm plastic pouch (CYG Pouch; Mega International, St. Paul, Minn.). In pouch solution evaluation, S-Benzylthiouracil compounds or their salts were dissolved in a small volume of DMSO and added to sterile water with a maximum of 0.5% v/v DMSO at final dilution. The S-Benzylthiouracil solution was subsequently pipetted into the growth pouch, followed by the addition of seeds of the crop being tested. The pouches were arranged in a randomized complete block design in growth racks and placed in 19-liter polycarbonate food storage containers (Rubbermaid Commercial Products, Winchester, Va.). The sealed containers were held in an upright growth cabinet maintained at 25 C with a 12 hour light: 12 hour dark photoperiod. For rice, plants were harvested at 6 d, while in mungbean and corn, the plants were harvested at 4 d post sowing. Measurements were performed on the primary root and shoot of each seedling. The growth of the primary root of rice was examined in the pouch assay system. The results of the testing, presented as percent change in root length across all S-Benzylthiouracil compounds, are shown below.

mungbean = assay: Mungbean pouch assay: growth of primary root and shoot; details: for change in vivo at 10 ppm: 96 h, read-out: Percent Change in Primary Root Length of Mungbean; for Effect on mungbean root (and shoot) growth, in words: mungbean pouch assay; for Shoot Length / Root Length: 4 days; for Shoot Length: control 4.9; for Root Length: control 6.1; for Percent Change in Primary Root Length: mungbean, linkage changes
Procedure: Seeds were placed in germination pouches consisting of germination paper as an insert in a gas-permeable 16×14 cm plastic pouch (CYG Pouch; Mega International, St. Paul, Minn.). In pouch solution evaluation, S-Benzylthiouracil compounds or their salts were dissolved in a small volume of DMSO and added to sterile water with a maximum of 0.5% v/v DMSO at final dilution. The S-Benzylthiouracil solution was subsequently pipetted into the growth pouch, followed by the addition of seeds of the crop being tested. The pouches were arranged in a randomized complete block design in growth racks and placed in 19-liter polycarbonate food storage containers (Rubbermaid Commercial Products, Winchester, Va.). The sealed containers were held in an upright growth cabinet maintained at 25 C with a 12 hour light: 12 hour dark photoperiod. For rice, plants were harvested at 6 d, while in mungbean and corn, the plants were harvested at 4 d post sowing. Measurements were performed on the primary root and shoot of each seedling. The growth of the primary root of mungbean was examined in the pouch assay system. The results of the testing, presented as percent change in root length across all the free S-Benzylthiouracil compounds is shown below. The following S-Benzylthiouracil compounds have benzyl substitutions as defined in Table 11 below.

tomato = assay: Tomato petri plate assay; details: for Shoot Length / Root Length: 6 days after sowing; for Shoot Length: control 3.3; for Root Length: control 3.5; for change in vivo at 10 ppm: Solanum lycopersicum, 144 h, after 6 days of continuous exposure, read-out: Percent Increase (percent change in primary tomato root length); for Effect on tomato root growth, in words: continuous exposure
Procedure: For tomato, the plants were grown in disposable (150 mm) sterile plastic petri plates (Falcon, BD Biosciences, Franklin Lakes, N.J.). In the tomato assay, a single sheet of Whatman #1 filter paper was placed at the bottom of the plate, 15 tomato seeds were added, and 10 mL of treatment solution was added. At the end of 6 d, the 10 largest seedlings were selected for measurement from each plate. In each study, a minimum of 3 replicate plates were used. In tomato, several S-Benzylthiouracil compounds were tested to determine the effects on root growth.

[1] = 10 mg/liter, 6 days after sowing, untreated control 10.50
[2] = 30 mg/liter, 6 days after sowing, untreated control 10.50
[3] = 10 ppm (10 mg/L), benzyl ring substitutions, vs control
[4] = 10 ppm (10 mg/L), benzyl ring substitutions
[5] = 10 ppm equivalent, 6 days after sowing, control 2.96
[6] = 10 ppm equivalent, 6 days after sowing, control 8.61
[7] = 10 ppm (10 mg/L), uracil moiety substitutions, vs control
[8] = 10 ppm (10 mg/L), uracil moiety substitutions

[K+].[O-]c1ccnc(SCc2cccc(F)c2)n1 [Compound 1 K+ salt, Potassium Salt of S-(3-Fluorobenzyl)-2-thiouracil]
Root Length (rice; 10 mg/liter, 6 days after sowing, untreated control 9.67): 11.03 cm
Root Length (rice; 30 mg/liter, 6 days after sowing, untreated control 9.67): 9.71 cm

[Na+].[O-]c1ccnc(SCc2ccccc2)n1 [Compound 2 Na+ salt, Sodium Salt of S-Benzyl-2-thiouracil]
Root Length (rice; [1]): 12.35 cm
Root Length (rice; [2]): 13.03 cm

Oc1ccnc(SCc2ccccc2)n1 [Compound 2, 2-[(phenylmethyl)thio]-4(3H)-pyrimidinone]
Root Length (rice; [1]): 12.44 cm
Root Length (rice; [2]): 12.21 cm
Root Length (rice; 1 ppm, 6 days after treatment, control 5.7): 6.7 cm
Root Length (rice; 10 ppm, 6 days after treatment, control 5.7): 7.8 cm
Percent Change (rice primary root growth) (rice; 10 ppm, 6 days after sowing): 15.6%
change in vivo at 10 ppm (rice; [3]): 15.6%
Effect on rice root growth, in words (rice): increased the root length compared to the control treatment
Percent Change in Primary Root Length of Mungbean (mungbean; [4]): 18.9%
change in vivo at 10 ppm (mungbean; [4]): 18.9%
Shoot Length (tomato; 1 ppm): 3.3 cm
Root Length (tomato; 1 ppm): 3.8 cm
Shoot Length (tomato; 10 ppm): 3.0 cm
Root Length (tomato; 10 ppm): 3.8 cm
change in vivo at 10 ppm (tomato; 10 ppm): 23%
Effect on tomato root growth, in words (tomato): one of the most active compounds in tomato; also recorded: root length was increased in a dose-dependent fashion
Effect on tomato root growth, in words (tomato; listed as S-Benzylthiouracil): active at promoting root growth

Oc1ccnc(SCc2ccc(F)cc2)n1 [Compound 3]
Shoot Length (rice; [5]): 2.59 cm
Root Length (rice; [6]): 9.38 cm
change in vivo at 10 ppm (rice; [3]): 13.9%
change in vivo at 10 ppm (mungbean; [4]): 10.4%
change in vivo at 10 ppm (tomato; 10 ppm): 2.8%

Oc1ccnc(SCc2ccccc2F)n1 [Compound 4]
change in vivo at 10 ppm (rice; [3]): 13.5%
change in vivo at 10 ppm (mungbean; [4]): 17.7%

Oc1ccnc(SCc2ccc(F)c(F)c2)n1 [Compound 5, S-(3,4-Difluorobenzyl)-2-thiouracil]
change in vivo at 10 ppm (rice; [3]): 13.4%
change in vivo at 10 ppm (mungbean; [4]): 17.6%
change in vivo at 10 ppm (tomato; 10 ppm): 23.4%

Oc1ccnc(SCc2cc(F)cc(F)c2)n1 [Compound 6, S-(3,5-Difluorobenzyl)-2-thiouracil]
change in vivo at 10 ppm (rice; [3]): 8.8%
change in vivo at 10 ppm (mungbean; [4]): 3%

COc1cccc(CSc2nccc(O)n2)c1 [Compound 7]
change in vivo at 10 ppm (rice; [3]): 2.5%
change in vivo at 10 ppm (mungbean; [4]): 17.5%

COc1ccc(CSc2nccc(O)n2)cc1 [Compound 8]
change in vivo at 10 ppm (rice; [3]): 0.4%

Cc1cccc(CSc2nccc(O)n2)c1 [Compound 9]
change in vivo at 10 ppm (rice; [3]): -2.3%
change in vivo at 10 ppm (mungbean; [4]): 5.9%

Oc1cc(O)nc(SCc2ccccc2)n1 [Compound 10]
change in vivo at 10 ppm (rice; [7]): 11.5%
change in vivo at 10 ppm (mungbean; [8]): 5.9%
change in vivo at 10 ppm (tomato; 10 ppm): 8.4%

Oc1nccc(SCc2cccc(F)c2)n1 [Compound 11]
change in vivo at 10 ppm (rice; [7]): 10.6%
change in vivo at 10 ppm (mungbean; [8]): 8.9%
change in vivo at 10 ppm (tomato; 10 ppm): -34.8%
Effect on tomato root growth, in words (tomato): root growth inhibition

CCOC(=O)c1cnc(SCc2cccc(F)c2)nc1O [Compound 12, S-(3-Fluorobenzyl)-5-carboxyethyl-2-thiouracil]
change in vivo at 10 ppm (rice; [7]): 9.5%
change in vivo at 10 ppm (mungbean; [8]): -20.1%
Effect on mungbean root (and shoot) growth, in words (mungbean): significant negative effect on root growth

Oc1nc(SCc2cccc(F)c2)nc2[nH]cnc12 [Compound 13]
change in vivo at 10 ppm (rice; [7]): 8.7%
change in vivo at 10 ppm (mungbean; [8]): 4.5%
change in vivo at 10 ppm (tomato; 10 ppm): 0.8%
Effect on tomato root growth, in words (tomato): root growth inhibition

Cc1cc(O)nc(SCc2ccccc2C)n1 [Compound 14]
change in vivo at 10 ppm (rice; [7]): 8.6%
change in vivo at 10 ppm (mungbean; [8]): 15.4%

Cc1cc(O)nc(SCc2ccccc2)n1 [Compound 15]
Percent Change in Primary Root Length in Rice (rice; [7]): 7.6%
change in vivo at 10 ppm (rice; [7]): 7.6%
Shoot Length (mungbean; 1 ppm): 5.6 cm
Root Length (mungbean; 1 ppm): 6.9 cm
Shoot Length (mungbean; 10 ppm): 5.0 cm
Root Length (mungbean; 10 ppm): 8.5 cm
change in vivo at 10 ppm (mungbean; [8]): 36.2%
Effect on mungbean root (and shoot) growth, in words (mungbean): greatest increases in mungbean root growth; also recorded: both root and shoot showed significant increases in growth
Effect on tomato root growth, in words (tomato): root growth inhibition

Cc1cc(O)nc(SCc2c(Cl)cccc2Cl)n1 [Compound 16, S-(2,6-Dichlorobenzyl)-6-methyl-2-thiouracil]
Shoot Length (rice; [5]): 2.71 cm
Root Length (rice; [6]): 9.31 cm
change in vivo at 10 ppm (rice; [7]): 5.5%
change in vivo at 10 ppm (mungbean; [8]): 6.6%
change in vivo at 10 ppm (tomato; 10 ppm): -7.2%

Fc1cccc(CSc2ncccn2)c1 [Compound 17]
change in vivo at 10 ppm (rice; [7]): 5.1%
change in vivo at 10 ppm (mungbean; [8]): 11.1%

Oc1cc(O)nc(SCc2cccc(F)c2)n1 [Compound 18]
Percent Change (rice primary root growth) (rice; 10 ppm, 6 days after sowing): 4.0%
change in vivo at 10 ppm (rice; [7]): 4%
change in vivo at 10 ppm (mungbean; [8]): 11.3%
change in vivo at 10 ppm (tomato; 10 ppm): 15.4%

Nc1ccnc(SCc2cccc(F)c2)n1 [Compound 19]
change in vivo at 10 ppm (rice; [7]): 2.9%

Cc1cc(O)nc(SCc2ccccc2Cl)n1 [Compound 20]
Shoot Length (rice; 1 ppm, 6 days after planting, control 1.7): 1.4 cm
Root Length (rice; 1 ppm, 6 days after planting, control 5.4): 5.3 cm
Shoot Length (rice; 2 ppm, 6 days after planting, control 1.7): 1.3 cm
Root Length (rice; 2 ppm, 6 days after planting, control 5.4): 4.7 cm
Shoot Length (rice; 5 ppm, 6 days after planting, control 1.7): 1.2 cm
Root Length (rice; 5 ppm, 6 days after planting, control 5.4): 4.6 cm
Shoot Length (rice; 10 ppm, 6 days after planting, control 1.7): 0.9 cm
Root Length (rice; 10 ppm, 6 days after planting, control 5.4): 3.8 cm
change in vivo at 10 ppm (rice; [7]): -6.9%
Effect on rice root growth, in words (rice): significantly negative effect; also recorded: dose-dependent reductions in root and shoot growth
change in vivo at 10 ppm (mungbean; [8]): 8.2%

Oc1ccnc(OCc2cccc(F)c2)n1 [Compound 21, 2-O-(3-fluorobenzyl)uracil]
Percent Change in Primary Root Length of Rice (rice; 10 ppm (10 mg/L), vs control): 6.0%
Percent Change in Primary Root Length (mungbean; 10 ppm (10 mg/L)): 9.1%

Oc1ccnc(SCCc2ccccc2)n1 [Compound 22]
Percent Change in Primary Root Length of Rice (rice; 10 ppm (10 mg/L), vs control): 5.3%
Effect on rice root growth, in words (rice): modest enhancements in root growth
Percent Change in Primary Root Length (mungbean; 10 ppm (10 mg/L)): 29.0%

Oc1ccnc(SC/C=C/c2ccccc2)n1 [Compound 23]
Percent Change in Primary Root Length of Rice (rice; 10 ppm (10 mg/L), vs control): 2.3%
Effect on rice root growth, in words (rice): modest enhancements in root growth
change in vivo at 10 ppm (tomato; 10 ppm): -15.7%

Oc1ccnc(OCc2ccccc2)n1 [Compound 24, 2-O-Benzyluracil]
Percent Change in Primary Root Length of Rice (rice; 10 ppm (10 mg/L), vs control): 2.2%
Percent Change in Primary Root Length (mungbean; 10 ppm (10 mg/L)): −1.3%

O=c1cc[nH]c(=O)[nH]1 [Uracil]
change in vivo at 10 ppm (tomato; 10 ppm): -21%
